Experimental data from ChEMBL document CHEMBL5678818, “Discovery of potent SOS1 inhibitors that block RAS activation via disruption of the RAS-SOS1 interaction” (Proc Natl Acad Sci U S A, 2019).

Experiments:
Homo sapiens [1] = organism: Homo sapiens; test: Stabilization of N-terminal His10-tagged recombinant human KRAS G12C/C118S mutant (1 to 169 residues) expressed in Escherichia coli assessed as change in melting temperature at 100 uM with heating from 25 to 85 degreeC by thermal shift assay
[2] = target: Cyclin-dependent kinase 13 (Homo sapiens) (UniProt Q14004); test: Inhibition of CDC2L5 (unknown origin) assessed as residual activity at 100 nM by KINOMEscan analysis relative to control
[3] = test system: Epidermal growth factor receptor (Homo sapiens), P00533 [L861Q]; test: Inhibition of EGFR L861Q mutant (unknown origin) assessed as residual activity at 100 nM by KINOMEscan analysis relative to control
[4] = test system: Receptor-type tyrosine-protein kinase FLT3 (Homo sapiens), P36888 [R834Q]; test: Inhibition of FLT3 R834Q mutant (unknown origin) assessed as residual activity at 100 nM by KINOMEscan analysis relative to control
[5] = target: T1, Serine/threonine-protein kinase LATS2 (Homo sapiens) (UniProt Q9NRM7); test: Inhibition of LATS2 (unknown origin) assessed as residual activity at 100 nM by KINOMEscan analysis relative to control
T1 sequence (whole entry): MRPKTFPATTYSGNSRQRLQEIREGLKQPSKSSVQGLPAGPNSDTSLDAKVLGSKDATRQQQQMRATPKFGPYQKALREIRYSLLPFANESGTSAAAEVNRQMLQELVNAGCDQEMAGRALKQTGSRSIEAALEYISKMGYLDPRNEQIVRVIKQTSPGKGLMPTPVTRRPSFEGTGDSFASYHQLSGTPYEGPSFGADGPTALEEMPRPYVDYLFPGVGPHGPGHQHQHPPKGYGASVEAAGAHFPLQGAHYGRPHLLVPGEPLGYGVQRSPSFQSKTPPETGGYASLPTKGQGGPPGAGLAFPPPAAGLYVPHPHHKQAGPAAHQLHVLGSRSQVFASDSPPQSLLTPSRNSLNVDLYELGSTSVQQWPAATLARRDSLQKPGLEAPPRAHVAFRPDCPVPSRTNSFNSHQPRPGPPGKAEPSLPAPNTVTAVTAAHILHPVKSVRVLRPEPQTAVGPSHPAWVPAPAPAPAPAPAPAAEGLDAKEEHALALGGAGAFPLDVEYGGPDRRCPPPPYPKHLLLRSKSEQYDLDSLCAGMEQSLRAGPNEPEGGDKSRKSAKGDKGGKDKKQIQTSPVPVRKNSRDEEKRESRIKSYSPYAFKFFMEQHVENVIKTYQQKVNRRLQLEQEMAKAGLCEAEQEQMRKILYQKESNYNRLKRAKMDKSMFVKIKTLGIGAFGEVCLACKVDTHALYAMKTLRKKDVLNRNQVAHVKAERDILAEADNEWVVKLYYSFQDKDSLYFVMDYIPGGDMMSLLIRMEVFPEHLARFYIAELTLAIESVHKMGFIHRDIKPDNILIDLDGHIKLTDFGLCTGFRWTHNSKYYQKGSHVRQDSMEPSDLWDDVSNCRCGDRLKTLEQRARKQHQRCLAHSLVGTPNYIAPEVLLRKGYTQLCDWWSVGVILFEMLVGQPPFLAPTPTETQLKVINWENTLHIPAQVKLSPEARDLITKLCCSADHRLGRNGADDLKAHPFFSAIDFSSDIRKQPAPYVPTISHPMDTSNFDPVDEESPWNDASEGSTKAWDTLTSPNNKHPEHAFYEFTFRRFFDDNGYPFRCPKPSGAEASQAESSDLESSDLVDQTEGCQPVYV

[6] = target: LIM domain kinase 2 (Homo sapiens) (UniProt P53671); test: Inhibition of LIMK2 (unknown origin) assessed as residual activity at 100 nM by KINOMEscan analysis relative to control
[7] = target: Misshapen-like kinase 1 (Homo sapiens) (UniProt Q8N4C8); test: Inhibition of MINK (unknown origin) assessed as residual activity at 100 nM by KINOMEscan analysis relative to control
[8] = target: T2, Serine/threonine-protein kinase 3 (Homo sapiens) (UniProt Q13188); test: Inhibition of MST2 (unknown origin) assessed as residual activity at 100 nM by KINOMEscan analysis relative to control
T2 sequence (whole entry): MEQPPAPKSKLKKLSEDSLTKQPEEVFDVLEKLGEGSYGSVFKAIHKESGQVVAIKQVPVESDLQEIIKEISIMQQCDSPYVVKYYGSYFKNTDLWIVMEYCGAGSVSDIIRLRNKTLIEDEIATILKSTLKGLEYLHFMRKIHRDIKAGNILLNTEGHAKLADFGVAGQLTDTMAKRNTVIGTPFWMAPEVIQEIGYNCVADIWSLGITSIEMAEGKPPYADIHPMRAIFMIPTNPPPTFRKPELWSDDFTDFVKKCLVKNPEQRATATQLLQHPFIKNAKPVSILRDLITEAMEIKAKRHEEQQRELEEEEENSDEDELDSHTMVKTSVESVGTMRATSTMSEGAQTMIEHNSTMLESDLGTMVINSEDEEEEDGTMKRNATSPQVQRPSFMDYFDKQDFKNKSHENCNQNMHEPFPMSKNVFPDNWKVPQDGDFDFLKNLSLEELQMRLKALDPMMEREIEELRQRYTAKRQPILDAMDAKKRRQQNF

Homo sapiens [9] = organism: Homo sapiens; test: Inhibition of C-terminal RPS6KA4 kinetic domain 2 (unknown origin) assessed as residual activity at 100 nM by KINOMEscan analysis relative to control
[10] = target: T3, TGF-beta receptor type-1 (Homo sapiens) (UniProt P36897); test: Inhibition of TGFBR1 (unknown origin) assessed as residual activity at 100 nM by KINOMEscan analysis relative to control
T3 sequence (whole entry): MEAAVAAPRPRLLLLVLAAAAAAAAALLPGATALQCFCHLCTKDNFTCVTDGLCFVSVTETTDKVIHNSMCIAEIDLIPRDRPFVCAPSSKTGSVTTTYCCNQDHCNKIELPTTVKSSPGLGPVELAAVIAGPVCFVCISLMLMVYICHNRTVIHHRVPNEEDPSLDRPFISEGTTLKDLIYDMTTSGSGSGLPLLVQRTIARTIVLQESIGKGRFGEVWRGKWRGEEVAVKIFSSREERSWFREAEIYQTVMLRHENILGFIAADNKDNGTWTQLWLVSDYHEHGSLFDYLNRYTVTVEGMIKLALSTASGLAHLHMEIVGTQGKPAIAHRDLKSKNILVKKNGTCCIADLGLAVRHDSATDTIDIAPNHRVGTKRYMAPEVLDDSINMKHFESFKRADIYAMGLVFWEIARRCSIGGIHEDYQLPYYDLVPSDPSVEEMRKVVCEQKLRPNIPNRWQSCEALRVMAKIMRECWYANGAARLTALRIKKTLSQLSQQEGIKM

[11] = target: Vascular endothelial growth factor receptor 2 (Homo sapiens) (UniProt P35968); test: Inhibition of VEGFR2 (unknown origin) assessed as residual activity at 100 nM by KINOMEscan analysis relative to control
[12] = target: Serine/threonine-protein kinase WNK3 (Homo sapiens) (UniProt Q9BYP7); test: Inhibition of WNK3 (unknown origin) assessed as residual activity at 100 nM by KINOMEscan analysis relative to control
Serine/threonine-protein kinase WNK3 (Homo sapiens), sequence (Q9BYP7 whole entry): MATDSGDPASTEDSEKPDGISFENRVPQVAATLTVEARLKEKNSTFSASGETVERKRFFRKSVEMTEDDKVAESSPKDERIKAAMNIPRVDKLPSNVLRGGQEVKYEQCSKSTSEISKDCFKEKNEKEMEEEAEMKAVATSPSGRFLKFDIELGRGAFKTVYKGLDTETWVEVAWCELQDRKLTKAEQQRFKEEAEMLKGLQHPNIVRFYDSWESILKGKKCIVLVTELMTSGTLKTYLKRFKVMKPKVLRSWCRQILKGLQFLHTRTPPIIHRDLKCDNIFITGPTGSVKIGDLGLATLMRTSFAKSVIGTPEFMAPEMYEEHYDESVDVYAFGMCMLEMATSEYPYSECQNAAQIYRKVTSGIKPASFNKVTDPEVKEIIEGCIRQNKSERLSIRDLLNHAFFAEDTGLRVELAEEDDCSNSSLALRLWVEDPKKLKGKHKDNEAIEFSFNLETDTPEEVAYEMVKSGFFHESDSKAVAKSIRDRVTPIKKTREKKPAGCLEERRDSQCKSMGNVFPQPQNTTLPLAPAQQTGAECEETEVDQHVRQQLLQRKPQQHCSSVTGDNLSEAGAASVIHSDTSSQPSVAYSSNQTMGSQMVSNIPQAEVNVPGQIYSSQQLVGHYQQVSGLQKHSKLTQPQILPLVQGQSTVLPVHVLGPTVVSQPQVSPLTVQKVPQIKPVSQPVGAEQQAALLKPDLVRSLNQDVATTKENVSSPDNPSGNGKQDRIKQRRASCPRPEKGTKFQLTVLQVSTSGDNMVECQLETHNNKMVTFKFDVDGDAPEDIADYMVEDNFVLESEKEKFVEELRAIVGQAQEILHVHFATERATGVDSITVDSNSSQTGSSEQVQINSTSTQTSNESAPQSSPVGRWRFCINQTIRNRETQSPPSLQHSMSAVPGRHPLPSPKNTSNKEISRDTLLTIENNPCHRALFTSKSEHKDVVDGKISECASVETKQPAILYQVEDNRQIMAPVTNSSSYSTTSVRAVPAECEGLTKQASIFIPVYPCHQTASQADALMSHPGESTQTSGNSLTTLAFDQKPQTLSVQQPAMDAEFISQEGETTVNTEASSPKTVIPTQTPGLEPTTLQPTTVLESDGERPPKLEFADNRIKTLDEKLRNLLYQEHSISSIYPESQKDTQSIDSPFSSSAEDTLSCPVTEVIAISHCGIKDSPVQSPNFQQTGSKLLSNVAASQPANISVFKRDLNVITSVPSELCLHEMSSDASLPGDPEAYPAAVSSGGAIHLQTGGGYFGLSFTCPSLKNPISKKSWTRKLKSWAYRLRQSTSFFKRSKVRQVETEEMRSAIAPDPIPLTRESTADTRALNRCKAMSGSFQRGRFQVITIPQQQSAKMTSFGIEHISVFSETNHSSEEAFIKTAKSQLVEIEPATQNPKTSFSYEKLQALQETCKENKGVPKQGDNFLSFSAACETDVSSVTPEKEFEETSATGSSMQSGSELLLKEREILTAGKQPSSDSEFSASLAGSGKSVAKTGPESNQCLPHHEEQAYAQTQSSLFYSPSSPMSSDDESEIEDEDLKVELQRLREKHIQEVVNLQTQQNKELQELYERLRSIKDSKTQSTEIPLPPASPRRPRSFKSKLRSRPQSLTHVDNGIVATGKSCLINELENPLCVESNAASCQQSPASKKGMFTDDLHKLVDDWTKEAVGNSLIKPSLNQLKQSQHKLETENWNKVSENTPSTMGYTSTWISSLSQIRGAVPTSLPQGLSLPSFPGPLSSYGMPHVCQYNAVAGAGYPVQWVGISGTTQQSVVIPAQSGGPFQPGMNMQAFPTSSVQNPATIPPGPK

LIM domain kinase 2 (Homo sapiens), sequence (P53671 whole entry, looked up, the tested form may be a part): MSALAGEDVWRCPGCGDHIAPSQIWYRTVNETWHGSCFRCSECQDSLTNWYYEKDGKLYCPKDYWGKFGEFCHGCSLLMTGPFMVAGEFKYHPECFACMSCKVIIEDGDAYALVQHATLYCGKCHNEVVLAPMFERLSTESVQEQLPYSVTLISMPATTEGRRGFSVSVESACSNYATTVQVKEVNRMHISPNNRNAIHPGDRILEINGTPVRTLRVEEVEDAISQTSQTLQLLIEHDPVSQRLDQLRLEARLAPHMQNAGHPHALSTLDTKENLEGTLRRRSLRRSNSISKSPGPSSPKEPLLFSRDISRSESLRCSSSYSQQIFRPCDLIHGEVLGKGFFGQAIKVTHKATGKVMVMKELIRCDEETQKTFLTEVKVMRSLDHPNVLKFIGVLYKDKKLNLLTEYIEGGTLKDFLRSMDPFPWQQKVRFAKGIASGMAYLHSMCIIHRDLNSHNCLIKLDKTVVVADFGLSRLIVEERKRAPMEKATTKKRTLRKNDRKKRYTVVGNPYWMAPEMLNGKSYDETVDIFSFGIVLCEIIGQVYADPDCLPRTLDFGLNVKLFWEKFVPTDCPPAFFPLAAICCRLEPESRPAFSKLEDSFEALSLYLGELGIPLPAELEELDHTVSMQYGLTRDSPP
Cyclin-dependent kinase 13 (Homo sapiens), sequence (Q14004 whole entry, looked up): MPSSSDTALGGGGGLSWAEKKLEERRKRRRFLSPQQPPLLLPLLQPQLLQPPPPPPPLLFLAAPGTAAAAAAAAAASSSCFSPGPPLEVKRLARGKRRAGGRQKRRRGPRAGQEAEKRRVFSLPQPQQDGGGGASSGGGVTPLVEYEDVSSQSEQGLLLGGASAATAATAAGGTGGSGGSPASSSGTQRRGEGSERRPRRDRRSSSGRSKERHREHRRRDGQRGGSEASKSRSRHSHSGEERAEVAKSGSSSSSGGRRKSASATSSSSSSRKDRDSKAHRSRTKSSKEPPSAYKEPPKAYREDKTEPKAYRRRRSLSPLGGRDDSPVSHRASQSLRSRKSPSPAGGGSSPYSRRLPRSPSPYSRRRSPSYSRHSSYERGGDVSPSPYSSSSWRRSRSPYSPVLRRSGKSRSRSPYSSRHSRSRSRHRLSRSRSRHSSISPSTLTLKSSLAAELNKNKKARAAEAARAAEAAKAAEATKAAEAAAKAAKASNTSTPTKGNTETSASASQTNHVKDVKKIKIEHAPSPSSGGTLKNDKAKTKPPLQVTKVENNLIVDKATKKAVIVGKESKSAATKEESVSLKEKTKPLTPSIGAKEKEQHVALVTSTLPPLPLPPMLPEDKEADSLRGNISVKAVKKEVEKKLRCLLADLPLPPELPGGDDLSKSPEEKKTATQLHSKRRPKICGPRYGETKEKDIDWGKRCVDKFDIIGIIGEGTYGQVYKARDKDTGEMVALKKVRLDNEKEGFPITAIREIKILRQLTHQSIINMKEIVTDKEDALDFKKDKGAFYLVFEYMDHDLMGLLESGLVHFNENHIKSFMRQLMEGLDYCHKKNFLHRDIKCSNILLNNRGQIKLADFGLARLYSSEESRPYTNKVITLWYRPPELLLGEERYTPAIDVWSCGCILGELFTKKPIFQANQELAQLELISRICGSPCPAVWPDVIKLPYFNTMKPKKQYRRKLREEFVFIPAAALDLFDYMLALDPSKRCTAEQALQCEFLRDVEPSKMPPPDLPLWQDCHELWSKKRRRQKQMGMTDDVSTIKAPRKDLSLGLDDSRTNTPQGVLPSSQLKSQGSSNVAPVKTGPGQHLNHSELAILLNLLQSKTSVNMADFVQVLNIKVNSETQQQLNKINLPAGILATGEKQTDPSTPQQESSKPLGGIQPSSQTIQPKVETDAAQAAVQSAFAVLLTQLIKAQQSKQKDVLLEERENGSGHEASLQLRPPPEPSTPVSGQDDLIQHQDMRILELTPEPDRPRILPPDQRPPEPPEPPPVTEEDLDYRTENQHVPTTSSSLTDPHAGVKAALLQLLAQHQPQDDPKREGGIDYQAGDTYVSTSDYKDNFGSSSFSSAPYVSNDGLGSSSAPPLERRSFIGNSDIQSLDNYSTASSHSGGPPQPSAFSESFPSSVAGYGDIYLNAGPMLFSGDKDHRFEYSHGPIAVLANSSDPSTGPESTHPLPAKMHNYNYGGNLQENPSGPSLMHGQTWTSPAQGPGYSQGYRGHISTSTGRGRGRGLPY

`COc1cc2ncnc(N[C@H](C)c3cccc4ccccc34)c2cc1OC` showed a ΔTm (Homo sapiens [1]) of -1.9 °C, an Activity [2] of 92% and an Activity [3] of 95%. The Activity [4] was 93%, the Activity [5] was 87% and the Activity [6] was 28%. The Activity [7] was 77%, the Activity [8] was 92% and the Activity (Homo sapiens [9]) was 87%. For the same molecule, the Activity [10] was 83%, the Activity [11] was 75% and the Activity [12] was 89%.
